Source: patent publication US9737510B2, “Indazole compounds and a process for the preparation thereof” (Council of Scientific & Industrial Research, priority 2013, dated 2017)
≈ marks a conversion by molar mass, not a printed value.

Experiments:
[1] = Metabolic study and intrinsic clearance in MLM; assay type: in vitro ADME
[2] = Kinetic solubility; assay type: physicochemical; conditions: kinetic from dmso stock
[3] = molecular target: CYP3A4 (Homo sapiens, UniProt P08684); experiment: CYP3A4 inhibition; assay type: in vitro ADME
CYP3A4, sequence (P08684 whole entry): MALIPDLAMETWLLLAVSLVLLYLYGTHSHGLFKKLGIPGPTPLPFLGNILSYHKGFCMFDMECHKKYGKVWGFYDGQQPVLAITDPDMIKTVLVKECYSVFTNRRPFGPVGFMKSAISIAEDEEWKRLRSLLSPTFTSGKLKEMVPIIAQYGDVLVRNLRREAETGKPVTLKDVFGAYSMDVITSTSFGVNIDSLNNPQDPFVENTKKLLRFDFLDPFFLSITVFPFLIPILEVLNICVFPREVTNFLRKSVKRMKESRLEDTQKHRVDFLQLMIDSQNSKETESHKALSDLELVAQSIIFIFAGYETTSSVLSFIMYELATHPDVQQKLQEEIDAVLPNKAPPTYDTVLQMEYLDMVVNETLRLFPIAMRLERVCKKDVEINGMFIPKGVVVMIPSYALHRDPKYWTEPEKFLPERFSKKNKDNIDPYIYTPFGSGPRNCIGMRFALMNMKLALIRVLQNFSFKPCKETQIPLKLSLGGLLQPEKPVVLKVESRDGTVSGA

[4] = molecular target: T1, LTA4H (Homo sapiens, UniProt P09960); experiment: LTA4H inhibition; assay type: biochemical; conditions: read-out: IC50 against LTA4H
T1 sequence (P09960 1-611): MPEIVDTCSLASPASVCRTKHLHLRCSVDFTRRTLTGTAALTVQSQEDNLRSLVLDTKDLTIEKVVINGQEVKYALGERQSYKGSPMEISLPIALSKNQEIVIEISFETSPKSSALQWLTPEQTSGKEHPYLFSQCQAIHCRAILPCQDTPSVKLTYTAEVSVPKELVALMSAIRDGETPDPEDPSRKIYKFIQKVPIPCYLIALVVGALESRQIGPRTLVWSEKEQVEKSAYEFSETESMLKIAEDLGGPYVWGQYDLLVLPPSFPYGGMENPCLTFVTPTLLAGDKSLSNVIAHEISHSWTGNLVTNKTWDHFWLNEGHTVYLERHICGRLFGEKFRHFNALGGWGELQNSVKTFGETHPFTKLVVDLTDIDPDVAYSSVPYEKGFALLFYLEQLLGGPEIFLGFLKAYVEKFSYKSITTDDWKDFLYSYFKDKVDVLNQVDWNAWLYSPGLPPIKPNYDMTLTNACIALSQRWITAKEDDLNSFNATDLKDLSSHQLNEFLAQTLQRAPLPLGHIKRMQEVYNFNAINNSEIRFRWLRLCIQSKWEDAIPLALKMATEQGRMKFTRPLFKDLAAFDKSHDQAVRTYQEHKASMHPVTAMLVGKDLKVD
Protocol: NDS100178 series of compound primarily activates imidazoline receptor […]. In high glucose condition this activation leads to formation of Diacylglycerol (DAG). DAG subsequently generates Arachidonic Acids (AA) in the cell. Metabolites of AA especially epoxyeicosatrienenoic acids (EETs) and hydroxyeicosatetrenoic acids (HETEs) induce exocytosis leading to increased secretion of insulin from the cells. The other major signalling pathway that can alter the glucose/DAG induced AA pool is the leukotriene pathway, that, by metabolizing AA into different leukotrienes and not EET and HETE can suppress its insulin secretion effect. Molecules that can inhibit metabolism of AA through leukotriene pathway can maintain AA pool leading to its metabolism only through EETs and HETEs and thus can enhance increase insulin secretion. One of the major enzymes in leukotriene pathway is LTA4H hydrolase that converts LTA4 into LTB4, a AA derivative that suppresses insulin secretion. A novel finding that inhibiting LTA4H can enhance insulin secretion has been established by the inventors. NDS100178 inhibits LTA4H (IC50<500 nM) while the IC50 against LTA4H target of compound 6 from patent US20040009976 Compound: 5-Chloro-2-methyl-3-(4,5-dihydro-1-H-imidazol-2-yl)-1H-indole) is above 10 uM.

[5] = test system: MIN6 cells; experiment: Insulinotropic activity: insulin secretion from MIN6 cells (ELISA based assay); assay type: cell-based, mouse; conditions: for Insulin Secretion: standard error in bracket
Protocol: Insulinotropic activity of the NDS100178 and NDS100179 was measured by a well-optimized ELISA based Assay (Shantani Protocol #5205) described below.
Materials • MIN6Cell (source: National Center for Cell Sciences, Pune) • Mouse Insulin ELISA kit (Mercodia, 10-1247-01) • Plate Shaker (MixMatefromEppendorf) • HEPES Balanced Krebs-Ringer bicarbonate buffer (components as follows)
Method • i. Seed proliferating culture of MIN-6 cells into a 6 well plate with almost half the confluency two days before the experiment. • ii. One the day of Insulin induction experiment, the cells should become almost confluent and are in good condition. • iii. On the day of experiment, first prepare 1×KRB-HEPES buffer with 0.1% BSA (for rinse) and without BSA (for equilibration and insulin induction) as described in the materials. • iv. Prepare equilibration buffer: 1×KRB-HEPES buffer without BSA containing 3.3 mM glucose (to bring down the glucose level of all cells to the same level). For example, add 66 ul 1 M glucose stock solution to 20 ml KRB-HEPES buffer without BSA. • v. Prepare the stimulating buffer (insulin induction): 1×KRB-HEPES buffer without BSA containing the defined glucose level (in most cases, it will be 16.7 mM glucose) and the desired concentration of molecule. • vi. Pre warm all the buffers to 37° C. in the water bath (at 15 minutes). • vii. Remove media from all wells, rinse each well twice with 2 ml KRB-HEPES buffer containing 0.1% BSA. • viii. Add 2 ml of equilibration buffer in each well and incubate at 37° C. for half an hour. • ix. After the incubation add 2 ml of stimulating buffer in respective wells (properly labelled) and incubate 37° C. for 1 hour. • x. In the meanwhile, turn on the refrigerated centrifuge and set the temperature to 4° C. Take out enzyme conjugate, diluent buffer, Calibrator 0 and stripes needed (for example, two stripes for 8 samples to be run in duplicate) from Mercodia ELISA kit box (store at 4° C.) and warm up them to RT. • xi. […] Centrifuge the tubes at 600 g for 5 min. • xiii. Take out 500 ul in fresh properly labelled precooled tubes. • xiv. Now dilute the samples 1:30 in calibrator 0 i.e. add 3 ul of each sample to 87 ul of Calibrator 0 in 8 different properly labelled 0.5 ml tubes. Mix them well. • xv. Prepare 1× enzyme conjugate buffer, i.e. mix 180 ul enzyme (11×) with 1800 ul diluent buffer for ELISA of two stripes. • xvi. Add 10 ul of each sample (diluted, in duplicate) in the two adjacent wells. Be careful not to touch the bottom. • xvii. Carefully add 100 ul of Enzyme Conjugate buffer (1×) to each well and incubate on a plate shaker (eppendorf MixMate) at 800 rpm for 2 hours at 25° C. • xviii. 45 min before the incubation is over take out wash buffer, substrate TMB and Stop solution. Keep them at RT. • xix. 5 min before the incubation is over prepare 1× wash buffer (21×), i.e. 40 ml distilled water+2 ml (21×) wash buffer in a reservoir. • xx. After the incubation is over, wash each well 7 times with 350 ul wash buffer. Use a multichannel (175 ul). • xxi. After the washing add 200 uL substrate TMB solution in each well. Maintain a proper pace. • xxii. Allow to incubate for 15 min. Set the program on the plate reader, to take absorbance read at 450 nm. Add a 5 sec shake step to allow proper mixing. • xxiii. After incubation immediately add 50 ul Stop solution in each well at same pace and take absorbance read at 450 nm.
Assay conditions were kept same in all the assays. The difference in absorption-value for control experiment (no treatment with molecule) over different days is attributed to cell culture conditions. Other varying conditions are specified in the respective graphs.
[Note: If not mentioned specifically, HG=High Glucose (16.7 mM), LG=Low Glucose (3.3 mM)]

[6] = Metabolic study in HLM; assay type: in vitro ADME

In the case of `Clc1ccc2[nH]nc(C3=NCCN3)c2c1` [NDS100178, 5-Chloro-3-(4,5-dihydro-1H-imidazol-2-yl)-1H-indazole], the “Intrinsic Clearnace MLM” value [1] is reported as 80.8 μl/min/mg of protein, the “Metabolic Study MLM Mean % PCR*” value [1] is reported as 38.84% and the solubility kinetic [2] is reported as 214 µM (≈ 47.3 µg/mL). The “CYP3A4 Inhibition” value [3] was “No inhibition”, the IC50 [4] was less than 0.5 µM and the “insulin secretion from MIN6 cells in high glucose conditions” value ([5]; 33 uM, 1 hour, high glucose (16.7 mM), three different days) was “significant increase in the insulin secretion”. For the same molecule, the “insulin secretion over control” value ([5]; MIN6 cells, 10 nM) was “No significant difference over the control”, the “insulin secretion over control” value ([5]; MIN6 cells, 50 nM) was “No significant difference over the control” and the “increase in insulin secretion” value ([5]; MIN6 cells, 100 nM) was “more than 100%”. The “Insulin Secretion” value ([5]; MIN6 cells, compound 0.1 μM) was 8.91 (1.6) ng/ml, the “Insulin Secretion” value ([5]; MIN6 cells, compound 1.0 μM) was 12.49 (1.9) ng/ml and the “Insulin Secretion” value ([5]; MIN6 cells, compound 10.0 μM) was 35.09 (4.0) ng/ml. For the same molecule, the “glucose dependence of insulinotropic activity” value ([5]; MIN6 cells, high glucose vs lower glucose conditions) was “glucose dependent”, the melting point was 248 to 249 °C and the “Metabolic Study HLM Mean % PCR*” value [6] was 79.70%.

In the case of `Clc1ccc2[nH]nc(C3=NC4CCCCC4N3)c2c1` (stereo not drawn) [NDS100281, 5-chloro-3-(3a,4,5,6,7,7a-hexahydro-1H-benzo[d]imidazol-2-yl)-1H-indazole], the “Insulin Secretion” value ([5]; MIN6 cells, compound 0.1 μM) is reported as 14.73 (0.5) ng/ml, the “Insulin Secretion” value ([5]; MIN6 cells, compound 1.0 μM) is reported as 16.91 (0.1) ng/ml and the “Insulin Secretion” value ([5]; MIN6 cells, compound 10.0 μM) is reported as 20.85 (0.8) ng/ml.

With `CCn1nc(C2=NCCN2)c2cc(Cl)ccc21` [NDS100282, 5-Chloro-3-(4,5-dihydro-1H-imidazol-2-yl)-1-ethyl-1H-indazole] the “Intrinsic Clearnace MLM” value [1] was 56.4 μl/min/mg of protein, the “Metabolic Study MLM Mean % PCR*” value [1] was 33.27% and the solubility kinetic [2] was 202 µM (≈ 50.1 µg/mL). For the same molecule, the IC50 [3] was greater than 10 µM, the “Insulin Secretion” value ([5]; MIN6 cells, compound 0.1 μM) was 13.02 (0.3) ng/ml and the “Insulin Secretion” value ([5]; MIN6 cells, compound 1.0 μM) was 18.73 (1.0) ng/ml. For the same molecule, the “Insulin Secretion” value ([5]; MIN6 cells, compound 10.0 μM) was 33.15 (0.7) ng/ml and the “Metabolic Study HLM Mean % PCR*” value [6] was 71.71%.

With `Cc1[nH]c2ccc(Cl)cc2c1C1=NCCN1` [Example-6 of Patent US20040009976, 5-Chloro-2-methyl-3-(4,5-dihydro-1-H-imidazol-2-yl)-1H-indole, reference compound] the “Intrinsic Clearnace MLM” value [1] was 21.3 μl/min/mg of protein, the “Metabolic Study MLM Mean % PCR*” value [1] was 64.83% and the solubility kinetic [2] was 196 µM (≈ 45.9 µg/mL). The “CYP3A4 Inhibition” value [3] was “No inhibition”, the IC50 [4] was greater than 10 µM and the “Insulin Secretion” value ([5]; MIN6 cells, compound 0.1 μM) was 1.39 (0.15) ng/ml. For the same molecule, the “Insulin Secretion” value ([5]; MIN6 cells, compound 1.0 μM) was 3.68 (2.11) ng/ml and the “Metabolic Study HLM Mean % PCR*” value [6] was 99.11%.

With `c1ccc2c(C3=NC4CCCCC4N3)n[nH]c2c1` (stereo not drawn) [NDS100279, 3-(3a,4,5,6,7,7a-hexahydro-1H-benzo[d]imidazol-2-yl)-1H-indazole] the “Insulin Secretion” value ([5]; MIN6 cells, compound 0.1 μM) was 10.45 (1.6) ng/ml, the “Insulin Secretion” value ([5]; MIN6 cells, compound 1.0 μM) was 14.57 (3.0) ng/ml and the “Insulin Secretion” value ([5]; MIN6 cells, compound 10.0 μM) was 21.45 (0.9) ng/ml.

For `Clc1ccc2c(c1)c(C1=NCCN1)nn2Cc1ccccc1` [NDS100283, 1-Benzyl-5-chloro-3-(4,5-dihydro-1H-imidazol-2-yl)-1H-indazole], the “Intrinsic Clearnace MLM” value [1] was 145.5 μl/min/mg of protein, the “Metabolic Study MLM Mean % PCR*” value [1] was 19.09% and the solubility kinetic [2] was 113 µM (≈ 35.2 µg/mL). The “CYP3A4 Inhibition” value [3] was “No inhibition”, the “Insulin Secretion” value ([5]; MIN6 cells, compound 0.1 μM) was 11.35 (1.0) ng/ml and the “Insulin Secretion” value ([5]; MIN6 cells, compound 1.0 μM) was 20.08 (0.8) ng/ml. For the same molecule, the “Insulin Secretion” value ([5]; MIN6 cells, compound 10.0 μM) was 50.45 (3.8) ng/ml and the “Metabolic Study HLM Mean % PCR*” value [6] was 86.02%.

With `Cn1nc(C2=NCCN2)c2ccccc21` [NDS100278, 3-(4,5-dihydro-1H-imidazol-2-yl)-1-methyl-1H-indazole] the “Insulin Secretion” value ([5]; MIN6 cells, compound 0.1 μM) was 12.43 (1.1) ng/ml, the “Insulin Secretion” value ([5]; MIN6 cells, compound 1.0 μM) was 10.80 (0.2) ng/ml and the “Insulin Secretion” value ([5]; MIN6 cells, compound 10.0 μM) was 13.16 (1.6) ng/ml.

For `c1ccc2c(C3=NCCN3)n[nH]c2c1` [NDS100277, 3-(4,5-dihydro-1H-imidazol-2-yl)-1H-indazole], the “Insulin Secretion” value ([5]; MIN6 cells, compound 0.1 μM) was 11.87 (0.8) ng/ml, the “Insulin Secretion” value ([5]; MIN6 cells, compound 1.0 μM) was 14.66 (0.4) ng/ml and the “Insulin Secretion” value ([5]; MIN6 cells, compound 10.0 μM) was 20.96 (1.7) ng/ml.
